Earlier results in patent US20190029235A1, “EFFICIENT, SCALABLE PATIENT-DERIVED XENOGRAFT SYSTEM BASED ON A CHICK CHORIOALLANTOIC MEMBRANE (CAM) IN VIVO MODEL” (Baylor College of Medicine, priority 2015, published 2019).

How the values were obtained:
[1] = system: BCM-2147 breast cancer PDX line; details: PDX line BCM-2147, tumor source Pre-treat Bx, mouse-based breast cancer PDX
[2] = system: BCM-6257 breast cancer PDX line; details: PDX line BCM-6257, tumor source Pre-treat Bx, mouse-based breast cancer PDX
[3] = system: BCM-4013 breast cancer PDX line; details: PDX line BCM-4013, tumor source Pre-treat Bx, mouse-based breast cancer PDX

| Compound | Treatment Response [1] | Treatment Response [2] | Treatment Response [3] |
| --- | --- | --- | --- |
| CC(=O)O[C@@]12CO[C@@H]1C[C@H](O)[C@@]1(C)C(=O)[C@H](O)C3=C(C)[C@@H](OC(=O)[C@H](O)[C@@H](NC(=O)OC(C)(C)C)c4ccccc4)C[C@@](O)([C@@H](OC(=O)c4ccccc4)[C@H]21)C3(C)C [Docetaxel, docetaxel] | Resistant | Sensitive | Resistant |
| N.N.O=C([O-])C1(C(=O)[O-])CCC1.[Pt+2] [Carboplatin, carboplatin] | Sensitive | Sensitive | Resistant |
| COc1cccc2c1C(=O)c1c(O)c3c(c(O)c1C2=O)C[C@@](O)(C(=O)CO)C[C@@H]3O[C@H]1C[C@H](N)[C@H](O)[C@H](C)O1 [Doxorubicin, doxorubicin] | Resistant | Resistant | Resistant |
